Experimental data published in patent US20260130905A1, “TOPICAL FORMULATIONS OF DEUCRAVACITINIB” (Bristol-Myers Squibb Company, priority 2021, published 2026).
Converted amounts (≈) assume the structure as drawn.

Experiments:
Format in all cases: physicochemical
[1] = Solubility of deucravacitinib in water
[2] = Solubility of deucravacitinib in different solvents
Text: The solubility of deucravacitinib was examined in various solvents. […] As these solvents can, in some instances, result in skin irritation, they were not included in the development of the formulations described later in the Examples.

[3] = Solubility of deucravacitinib in solvent systems
Text: The solubility of deucravacitinib was examined in various solvent systems that included water, as water is an essential component in aqueous gels and creams. The example solvent systems in Table 2 were designed for cream formulations. The total percentage of the solvent system was up to 80% of the total % w/w of the composition, with the remaining up to 20% reserved for oil component(s). Water or acidic buffer (an aqueous solution) accounted for 25% w/w of the total composition.

[4] = solvent: N-methyl-2-pyrrolidone (NMP)
[5] = solvent: dimethyl sulfoxide (DMSO)

- solubility [1]: ~9 µg/mL (≈ 21.2 µM)
- solubility in water [1]: ~0.00009 % w/w
- Deucravacitinib solubility ([2]; solvent: Caprylic/capric triglyceride): 0.01 % w/w
- Deucravacitinib solubility ([2]; solvent: Diethylene glycol monoethyl ether (DEGEE)): 0.62 % w/w
- Deucravacitinib solubility ([2]; solvent: Diisopropyl adipate): 0.01 % w/w
- Deucravacitinib solubility ([2]; solvent: Dimethyl isosorbide (DMI)): 0.51 % w/w
- Deucravacitinib solubility ([2]; solvent: Ethanol): 0.07 % w/w
- Deucravacitinib solubility ([2]; solvent: Isopropanol): 0.02 % w/w
- Deucravacitinib solubility ([2]; solvent: Isopropyl myristate): 0.00 % w/w
- Deucravacitinib solubility [2, 4]: 10.09 % w/w
- solubility (in words) [2, 4]: high solubility
- Deucravacitinib solubility ([2]; solvent: Octyldodecanol): 0.01 % w/w
- Deucravacitinib solubility ([2]; solvent: Polyethylene glycol (PEG) 400): 0.64 % w/w
- Deucravacitinib solubility ([2]; solvent: Polysorbate 80): 0.31 % w/w
- Deucravacitinib solubility ([2]; solvent: Propylene glycol): 0.16 % w/w
- Deucravacitinib solubility [2, 5]: 9.49 % w/w
- solubility (in words) [2, 5]: high solubility
- Deucravacitinib solubility ([3]; S1: water 25, PEG 400 38, DEGEE 15, benzyl alcohol 2 % w/w): 0.51 % w/w
- Deucravacitinib solubility ([3]; S2: water 25, PEG 400 38, DMI 15, benzyl alcohol 2 % w/w): 0.48 % w/w
- Deucravacitinib solubility ([3]; S3: water 25, PEG 400 23, DEGEE 15, DMI 15, benzyl alcohol 2 % w/w): 0.72 % w/w
- Deucravacitinib solubility ([3]; S4: 0.1N hydrochloric acid solution 25, PEG 400 38, DEGEE 15, benzyl alcohol 2 % w/w): 0.77 % w/w
- Deucravacitinib solubility ([3]; S5: 0.1N hydrochloric acid solution 25, PEG 400 38, DMI 15, benzyl alcohol 2 % w/w): 0.83 % w/w
- Deucravacitinib solubility ([3]; S6: 0.1N hydrochloric acid solution 25, PEG 400 23, DEGEE 15, DMI 15, benzyl alcohol 2 % w/w): 1.33 % w/w
- solubility (in words) ([3]; three-solvent system S3 (PEG 400, DEGEE, DMI) compared to two-solvent systems S1 and S2): greatest solubility
Structure (SMILES): [2H]C([2H])([2H])NC(=O)c1nnc(NC(=O)C2CC2)cc1Nc1cccc(-c2ncn(C)n2)c1OC [Deucravacitinib, 6-(cyclopropanecarboxamido)-4-((2-methoxy-3-(1-methyl-1H-1,2,4-triazol-3-yl)phenyl)amino)-N-(methyl-d3)pyridazine-3-carboxamide]
